Data as given in patent US7838732B2, “Transgenic plants expressing a cellulase” (Syngenta Participations AG, priority 1996, dated 2010).

Tests used:
[1] = tested on: PR-1a/T7 polymerase x plastid T7/GUS plants (pPH110X6b x 4276P); assay: GUS activity in leaf extracts of plants sprayed with BTH (fluorometric MUG assay); type: in vivo, Nicotiana tabacum
Description: (§1) The N. tabacum ‘Xanthi’ plastid transformant line 4276P described by McBride et al. ((1994) PNAS 91: 7301-7305) was pollinated by homozygous NT-110X6b5 plants containing the PR-1a/T7 RNA polymerase. 4276P differs from pC8 only with respect to (a) the promoter used to express the aadA selectable marker (which has the 16S ribosomal RNA gene promoter rather than the psbA gene promoter used in pC8), (b) the presence of a psbA gene 3′ untranslated region between the GUS gene and the T7 terminator, and (c) the absence of a lac operator and duplicated StuI restriction site sequence in the T7 promoter. F1 plants from this cross heterozygous for the PR-1a/T7 polymerase nuclear expression cassette and homoplastidic for the T7/GUS plastid expression cassette were germinated in soil. Upon reaching a height of 20 to 40 cm the plants were sprayed with either an inert wettable powder suspension or a formulation of the inducer compound BTH with wettable powder. Control untransformed N. tabacum ‘Xanthi’, NT-110X6b-5, and 4276P plants germinated in soil at the same time were sprayed in a similar manner. Plant material (one leaf from each of three independent plants of each genotype) was harvested just prior to spraying and at 8 hours and 1, 2, 3, 7, and 28 days following spraying, and flash frozen as described above.
Frozen leaf tissue was ground in a mortar with a pestle in the presence of liquid nitrogen to produce a fine powder. Leaf extracts were prepared in GUS extraction buffer (50 mM sodium phosphate pH7.0, 0.1% Triton-X 100, 0.1% sarkosyl, 10 mM β-mercaptoethanol) as described by Jefferson, R. A. et al. (1986), PNAS USA 83, 8447-8451. The reactions were carried out in the wells of opaque microtiter plates by mixing 10 ul of extract with 65 ul of GUS assay buffer (50 mM sodium phosphate pH 7.0, 10 mM EDTA, 0.1% Triton X-100, 10 mM β-mercaptoethanol) containing 4-methyl umbelliferyl glucuronide […] at a final concentration of 2 mM in a total volume of 75 ul. The plate was incubated at 37° C. for 30 minutes and the reaction was stopped by the addition of 225 ul of 0.2 M sodium carbonate. The concentration of fluorescent indicator released was determined by reading the plate on a Flow Labs Fluoroskan II ELISA plate reader. Duplicate fluorescence values for each sample were averaged, and background fluorescence (reaction without MUG) was subtracted to obtain the concentration of MU for each sample. The amount of protein in each extract was determined using the bicinchoninic acid technique (BCA, Pierce Biochemicals) according to the manufacturer's recommendations except that protein extracts were pretreated with iodoacetamide (Sigma) to eliminate background signal caused by the reductant (β-mercaptoethanol) present in the extraction buffer. The specific activity was determined for each sample and was expressed in pmoles MU/mg protein/minute. For each tissue sample assayed from a particular time point following BTH application, the specific activity of the BTH-induced sample was divided by the specific activity of the pre-BTH treatment control sample, thus yielding the induction of GUS expression. (See Table I)

[2] = tested on: PR-1a/T7 polymerase x plastid T7/GUS plants (pPH110X6b x 4276P); assay: GUS mRNA content of plants sprayed with BTH (Northern blot, ethidium bromide scan); type: in vivo, Nicotiana tabacum
Description: as §1
(§2) Total RNA was extracted from frozen tissue of BTH and wettable powder-sprayed control and PR-1a/T7 polymerase×plastid T7/GUS plants, and Northern blot analysis on 5 μg RNA samples was carried out as described (Ward et al. (1991) The Plant Cell 3, 1085-1094) using as a probe a 500 bp radiolabelled 5′ fragment of the GUS gene. […] Example C12 Determination of GUS protein content of transgenic plants In order to determine the amount of GUS present in the tissues of transgenic plants, chemiluminescent (Amersham) Western blot analysis was performed according to the manufacturer's instructions and Harlow and Lane (1988) Antibodies: A laboratory manual, Cold Spring Harbor Laboratory, Cold Spring Harbor, using GUS antisera purchased from Molecular Probes and purified GUS protein standards (Sigma). Proteins from frozen, ground leaf material harvested as above were solubilized by extraction in 50 mM Tris pH 8.0, 1 mM EDTA, 1 mM PTT, 1 mM AEBSP, and 1 mM DTT and 5 to 25 μg protein run on each lane of 10% polyacrylamide gels. GUS protein accumulation in the plastid transformed plants is sustained over 7-28 days and beyond, and is extraordinarily high (much higher than peak GUS accumulation for nuclear PR-1a/GUS), exceeding 20% of total protein by 28 days.

[3] = tested on: PR-1a/T7 polymerase x plastid T7/GUS plants; assay: GUS protein content of plants after BTH induction (Western blot); type: in vivo, Nicotiana tabacum; conditions: plastid transformed plants
Description: as §1, with “above. […]” for “above.”

[4] = tested on: PR-1a/T7 polymerase x plastid T7/cellulase plants; assay: E5 cellulase mRNA content of plants after BTH induction (Northern blot); type: in vivo, Nicotiana tabacum
Description: Homozygous NT-10× and NT-110N plants containing the PR-1a-T7 RNA Pol construct were used to pollinate homoplastidic Nt_pC8E5 and Nt_pC+E5 plastid transformant lines carrying the maternally inherited pC8E5 and pC+E5 cellulase constructs. The Nt_pC+E5×NT-110X or NT--110N, and Nt_pC8E5×NT-110X or NT110N F1 progeny (which were heterozygous for the PR-1/T7 polymerase nuclear expression cassette and homoplastidic for the T7/cellulase plastid expression cassette) were germinated on soil. Upon reaching a height of […], the plants were sprayed with the inducer compound BTH to elicit T7 Pol-regulated expression of the E5 cellulase gene that is localized to the plastids. […]
Total RNA was extracted from frozen tissue of BTH and wettable powder-sprayed control and PR-1a/7 polymerase×plastid T7/cellulase plants, and Northern blot analysis on 5 μg RNA samples was carried out as described (Ward et al. (1991) The Plant Cell 3, 1085-1094) using as a probe a radiolabelled DNA fragment containing the E5 cellulase coding sequence. Relative E5 cellulase mRNA accumulation at each time point was assessed by quantifying the radioactivity in bands hybridizing with the radiolabelled E5 cellulase probe in order to determine time courses of fold mRNA induction. […] Prior to induction, no cellulase mRNA is detected.

[5] = tested on: nuclear PR-1a/GUS transformants; assay: GUS protein accumulation in nuclear PR-1a/GUS transformants after induction (Western blot); type: in vivo; conditions: nuclear PR1a/GUS transformants
Description: as §2

CSC(=O)c1cccc2nnsc12 [BTH, benzo(1,2,3)thiadiazole-7-carbothioic acid S-methyl ester]
GUS activity (pmol MU/mg/min) ([1]; 0.3 days after BTH spray): 434 pmol MU/mg/min | GUS activity (pmol MU/mg/min) ([1]; 1.0 days after BTH spray): 14,516 pmol MU/mg/min | GUS activity (pmol MU/mg/min) ([1]; 2.0 days after BTH spray): 230,031 pmol MU/mg/min | GUS activity (pmol MU/mg/min) ([1]; 3.0 days after BTH spray): 456,486 pmol MU/mg/min | GUS activity (pmol MU/mg/min) ([1]; 7.0 days after BTH spray): 2,424,725 pmol MU/mg/min | GUS activity (pmol MU/mg/min) ([1]; 28.0 days after BTH spray): 1,922,466 pmol MU/mg/min | % Total RNA (GUS RNA) ([2]; 0.3 days after BTH spray): <0.013% | % Total RNA (GUS RNA) ([2]; 1.0 days after BTH spray): 0.108% | % Total RNA (GUS RNA) ([2]; 2.0 days after BTH spray): 0.873% | % Total RNA (GUS RNA) ([2]; 3.0 days after BTH spray): 2.663% | % Total RNA (GUS RNA) ([2]; 7.0 days after BTH spray): 7.745% | % Total RNA (GUS RNA) ([2]; 28.0 days after BTH spray): 24.596% | peak level of chemically inducible GUS RNA in the plastid, of total ethidium-stainable RNA ([2]; between 7 and 28 days after induction with BTH): 14% | peak GUS RNA relative to peak chemically inducible GUS mRNA accumulation for nuclear PR-1a/GUS transformants ([2]; plastid vs nuclear PR-1a/GUS transformants): over 1000 fold | GUS protein accumulation, of total protein ([3]; by 28 days): exceeding 20% | time of peak/sustained GUS protein accumulation ([3]; from induction): 7 to 28 days | time of peak cellulase mRNA accumulation ([4]; after induction): 14 days | E5 cellulase mRNA accumulation following induction ([4]; plant material of example C6, none detected prior to induction): significant cellulase mRNA accumulation | GUS protein accumulation by 28 days ([5]; 28 days): declines to the limits of detection | time of peak GUS protein accumulation ([5]; from induction): about 3 days
